From patent publication US20030157107A1, “Agents for preventing or ameliorating insulin resistance and/or obesity” (priority 2000, published 2003)
One block for each compound: values may come before it. No end group written: not given here.

What was measured:
[1] = tested on: CHO cells without transfer of receptor genes; assay: Inhibition of forskolin-stimulated cAMP production in CHO cells without transfer of receptor genes; assay type: cell-based; settings: 5 μM forskolin
Protocol: (§1) Screening of low molecular GIP function inhibitors was performed in accordance with the Example 1 of the screening method. Specifically, the GIP-receptor expressing CHO cells were stimulated with 100 pM GIP in the presence and absence of the test compound, and the amount of produced cAMP was measured to determine the GIP function inhibitory activity of the test compound. In addition, in order to confirm the receptor specificity of the test compound, the CHO cells expressing receptors of GLP-1 and glucagon which belong to glucagon-secretin family like GIP were stimulated with GLP-1 and glucagon (100 pM), respectively, and the inhibitory activity of the test compound on production of CAMP was determined. Moreover, in order to determine other effects which are unrelated to these receptors, the CHO cells without introducing any of these receptor genes were stimulated with 5 μM forskolin, and the inhibitory effect of the test compound on production of cAMP was determined. As for positive control, 500 nM GIP (7-30)-NH2 (tGIP) was used. [drawing 1]

GLP-1-receptor = molecular target: T1, GLP-1-receptor (Homo sapiens, UniProt P43220); assay: Inhibition of GLP-1-stimulated cAMP production in CHO cells expressing GLP-1-receptor; assay type: cell-based; settings: CHO cells expressing GLP-1-receptor stimulated by 100 pM GLP-1
T1 construct: expressed in transfected cells; host or cells: CHO cells
T1 sequence (P43220 24-463, species assumed): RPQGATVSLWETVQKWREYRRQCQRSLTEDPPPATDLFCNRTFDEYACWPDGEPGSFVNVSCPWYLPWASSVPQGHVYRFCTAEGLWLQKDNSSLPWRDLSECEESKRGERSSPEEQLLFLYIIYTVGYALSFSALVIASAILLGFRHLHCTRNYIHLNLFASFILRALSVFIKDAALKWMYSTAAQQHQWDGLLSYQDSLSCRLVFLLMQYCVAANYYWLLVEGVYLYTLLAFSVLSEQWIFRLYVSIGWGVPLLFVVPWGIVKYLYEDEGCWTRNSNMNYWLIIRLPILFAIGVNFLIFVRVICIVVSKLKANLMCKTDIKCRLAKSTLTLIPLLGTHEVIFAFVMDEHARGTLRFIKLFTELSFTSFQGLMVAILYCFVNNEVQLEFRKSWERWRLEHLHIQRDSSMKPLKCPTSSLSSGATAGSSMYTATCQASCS
Protocol: as §1

GIP-receptor = molecular target: T2, GIP-receptor (Homo sapiens, UniProt P48546); assay: Inhibition of GIP-stimulated cAMP production in GIP-receptor expressing CHO cells; assay type: cell-based; settings: CHO cells expressing GIP-receptor stimulated by 100 pM GIP; read-out: EC50 of inhibition of the cAMP production inducing effect of GIP
T2 construct: expressed in transfected cells; host or cells: CHO cells
T2 sequence (P48546 22-466): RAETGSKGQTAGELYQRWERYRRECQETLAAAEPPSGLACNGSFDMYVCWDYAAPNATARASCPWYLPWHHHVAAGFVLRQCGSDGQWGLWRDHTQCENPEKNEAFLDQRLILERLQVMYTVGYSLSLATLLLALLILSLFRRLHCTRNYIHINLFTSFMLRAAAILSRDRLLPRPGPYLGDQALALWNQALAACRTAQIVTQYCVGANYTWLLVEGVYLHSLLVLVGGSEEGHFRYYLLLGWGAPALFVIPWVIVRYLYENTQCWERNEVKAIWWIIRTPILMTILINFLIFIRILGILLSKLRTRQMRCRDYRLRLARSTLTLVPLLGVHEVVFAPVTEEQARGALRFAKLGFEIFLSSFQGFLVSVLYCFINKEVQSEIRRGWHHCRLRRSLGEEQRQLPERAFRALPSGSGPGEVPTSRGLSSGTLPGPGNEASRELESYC
Protocol: 1. A method for screening drugs by monitoring an inhibitory activity on the production of cAMP, an intracellular transmitter of GIP, which according to the method described by Kubota et al. (Diabetes, 45: 1701-1705, 1996), uses the human GIP-receptor expressing cells where […] is introduced into the CHO cells, and make cAMP produced by GIP in Krebs-Ringer buffer solution containing 1 mM isobutylmethylxanthine at 37° C. for 30 minutes in the presence of the drug. Then cAMP is extracted with 30% trichloroacetic acid, and radioimmunoassay is used to quantitate cAMP. Alternatively, Scintillation Proximity Assay (SPA) provided by Amersham Pharmacia Biotech Co., Inc. is used to quantitate cAMP.
Screening of low molecular GIP function inhibitors was performed in accordance with the Example 1 of the screening method. Specifically, the GIP-receptor expressing CHO cells were stimulated with 100 pM GIP in the presence and absence of the test compound, and the amount of produced cAMP was measured to determine the GIP function inhibitory activity of the test compound. […] Moreover, in order to determine other effects which are unrelated to these receptors, the CHO cells without introducing any of these receptor genes were stimulated with 5 μM forskolin, and the inhibitory effect of the test compound on production of cAMP was determined. […]

glucagon-receptor = molecular target: T3, glucagon-receptor (Homo sapiens, UniProt P47871); assay: Inhibition of glucagon-stimulated cAMP production in CHO cells expressing glucagon-receptor; assay type: cell-based; settings: CHO cells expressing glucagon-receptor stimulated by 100 pM glucagon, read-out: inhibitory rate on the action of glucagon (cAMP production)
T3 construct: expressed in transfected cells; host or cells: CHO cells
T3 sequence (P47871 26-477, species assumed): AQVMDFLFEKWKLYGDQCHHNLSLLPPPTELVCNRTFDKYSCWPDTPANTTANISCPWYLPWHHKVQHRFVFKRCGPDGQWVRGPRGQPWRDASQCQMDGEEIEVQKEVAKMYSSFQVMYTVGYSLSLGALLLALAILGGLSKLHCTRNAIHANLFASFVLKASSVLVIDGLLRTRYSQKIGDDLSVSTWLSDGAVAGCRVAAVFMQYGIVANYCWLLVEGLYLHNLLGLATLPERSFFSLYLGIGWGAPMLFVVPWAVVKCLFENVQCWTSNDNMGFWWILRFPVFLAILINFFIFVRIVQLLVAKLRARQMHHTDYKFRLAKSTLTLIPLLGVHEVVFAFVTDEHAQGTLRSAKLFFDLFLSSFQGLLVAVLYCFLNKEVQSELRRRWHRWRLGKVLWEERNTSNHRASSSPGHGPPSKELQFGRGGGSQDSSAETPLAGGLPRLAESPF
Protocol: as §1

[2] = tested on: glucose absorption by the intestine; settings: reported in WO98/24464; cited from earlier work
C57BL/6j mice = assay: GIP administration and high fat diet loading test in normal mice; assay type: in vivo; settings: high fat diet
Protocol: The animals used were 17-week-old male C57BL/6j mice. An osmotic pump was implanted under the skin of the back of each animal. Groups of animals each consisting of 5 mice were continuously given GIP 20, 60 or 200 μg/kg/hour or physiological saline as control, and also given either high fat diet or control normal diet. The energy composition of high fat diet was: lipid 45%, carbohydrate 38%, and protein 17%. The energy composition of control normal diet was: lipid 13%, carbohydrate 60%, and protein 27%. The energy contents of high fat and control normal diets were 4.77 and 3.57 kcal/g, respectively. GIP administration and high fat diet loading were continued for 4 weeks.
The body weights were measured weekly, and their changes were compared between the groups. The blood samples were collected under fasting 4 weeks after the start of the experiment to determine the blood glucose and insulin levels.

[3] = continuous GIP 20, 60 or 200 μg/kg/hour, after 4 weeks, vs same diet without GIP

- inhibitory effect on GLP-1 action (cAMP production) (GLP-1-receptor): almost no inhibitory effect
- EC50 (GIP-receptor): ~30 µM
- inhibition at 80 µM (glucagon-receptor): 27%
Compound: Cc1cc(O)n2nc(-c3ccccc3)c(Br)c2n1 [BMPP, 3-bromo-5-methyl-2-phenylpyrazolo[1,5-a]pyrimidine-7-ol]
- inhibitory effect on cAMP production stimulated by forskolin [1]: did not show any inhibitory effect

Compound: GIP (7-30)-NH2: fragmented peptide of GIP, known GIP-receptor antagonist, used as positive control (ISDYSIAMDKIHQQDFVNWLLAQK-NH2; UniProt P09681 58-81, looked up, fragment)
- glucose absorption by the intestine [2]: suppressed glucose absorption by the intestine

Compound: GIP: gastric inhibitory polypeptide or glucose-dependent insulinotropic peptide, a gastrointestinal hormone (YAEGTFISDYSIAMDKIHQQDFVNWLLAQKGKKNDWKHNITQ; Gastric inhibitory polypeptide; UniProt P09681 52-93, looked up)
- body weight gain (C57BL/6j mice; continuous GIP 20, 60 or 200 μg/kg/hour by osmotic pump, 4 weeks): No further increase in the body weight gain
- fasting blood glucose levels (C57BL/6j mice; [3]): increased depending on the dose of GIP
- fasting blood insulin levels (C57BL/6j mice; [3]): tended to increase depending on the dose of GIP
